US20240108636A1, “COMPOSITIONS FOR TREATMENT OF NEURODEGENERATIVE CONDITIONS” (BIOVIE INC., priority 2021, published 2024)
Where a name gives a salt, the structure may show the parent alone.

Assays:
[1] = tested on: tyrosine hydroxylase positive neurons; test: Surviving tyrosine hydroxylase positive neurons in substantia nigra of MPTP marmosets; type: in vivo, marmoset monkeys (Callithrix jacchus); conditions: Week 14, substantia nigra; FIG. 3
Experimental: (§1) The severity of LID was measured by abnormal involuntary movements score (AIMS) adapted to the primate PD model. The items include assessment of extremity and trunk movements, facial expression, and movement of the lips, peri-oral area, tongue, and jaw. These symptoms were scored on a scale from 0 (normal), 1 ([…]), 2 (mild), 3 (moderate) to 4 (severe). Measurement of parkinsonian behaviors continued as previously described. […] The subjects were exsanguinated under deep anaesthesia with Alphaxan (18 mg/kg i.m.). Immediately thereafter, the subjects were euthanized with EUTHASOL (pentobarbital natrium, i.c.). The brain of each subject was removed and frozen for immunohistochemical analyses. SNpc was analyzed for the presence of DA positive neurons with tyrosine hydroxylase immune reactive (TH-IR) staining.
In Week 14, all subjects were sacrificed and tissue samples from the substantia nigra were evaluated to measure the number of surviving tyrosine hydroxylase positive neurons. The increase in number of surviving TH+ neurons for subjects treated with amantadine and 17-EAT was 40% and 75%, as shown in FIG. 3.

[2] = tested on: MPTP model of Parkinson's disease; test: Immobility score, MPTP model of Parkinson's disease in marmoset monkeys; type: in vivo, marmoset monkeys (Callithrix jacchus); conditions: for Mean immobility score: 0-4 scale
Source text: (§2) The 1-methyl-4-phenyl-1,2,3,6-tetrahydropyridine (MPTP) model that was used is capable of reducing striatal dopamine levels to 5% of normal controls. The MPTP model was used to produce Parkinson's-like disease symptoms in three sequential independent cohorts of six marmosets monkeys (Callithrix jacchus, approximately 0.3-0.5 kg, 2-5 years) which were then observed for 3 weeks to confirm the absence of parkinsonian behavior and motor abnormalities. A single dose of 17-EAT or amantadine was administered at the beginning of Week 4 to confirm the absence of behavioral side effects. All subjects received subcutaneous injections of 1-2 mg/kg MPTP on Days 3, 4, and 5 of Week 5 and Day 1 and 3 of Week 6 for a total of 6.5 mg/kg MPTP and were observed through the end of Week 7 without further treatment, then randomized for treatment.
Oral administration of treatment of vehicle, amantadine, or 17-EAT formulated in acacia syrup began at the start of Week 8. Vehicle controls received acacia syrup only. Amantadine HCl (Sigma Aldrich, A1260-SG) was administered daily at a dose of 1 mg/kg. 17-EAT was administered daily at a dose of 30 mg/kg. In Weeks 8 and 9 test compound activity against parkinsonian behavior was observed several times daily for effects on clinical signs (lack of grooming, apathy, immobility, muscle rigidity, and tremor activity) and given an immobility score on a 0-4 scale, with 0 being normal and 4 being the most severe score. Ratings were performed by study personnel blind to treatment.

[3] = tested on: levodopa-induced dyskinesia (LID); test: Abnormal involuntary movements score (AIMS), levodopa-induced dyskinesia in MPTP marmosets; type: in vivo, marmoset monkeys (Callithrix jacchus); conditions: for AIMS: Week 12, in combination with levodopa 10 mg/kg, items scored 0-4; for Abnormal involuntary movements scores (AIMS) in combination with levodopa: Week 12, levodopa 5, 7.5, 10, 12.5 or 25 mg/kg, FIG. 2
Experimental: as §1

[4] = Body weight of MPTP marmosets; type: in vivo, marmoset monkeys (Callithrix jacchus); conditions: FIG. 4
Source text: as §2
Oral administration of treatment of vehicle, amantadine, or 17-EAT formulated in acacia syrup began at the start of Week 8. Vehicle controls received acacia syrup only. Amantadine HCl (Sigma Aldrich, A1260-SG) was administered daily at a dose of 1 mg/kg. 17-EAT was administered daily at a dose of 30 mg/kg. […]

[5] = tested on: TNF, IL-1b, IL-6, and other inflammatory cytokines; conditions: cited from earlier work
[6] = tested on: rodent models of systemic inflammation and neuroinflammation; conditions: cited from earlier work
[7] = Week 7, prior to treatment, 0 normal, 4 most severe
[8] = Week 8, monotherapy, oral daily (amantadine 1 mg/kg, 17-EAT 30 mg/kg)
[9] = Week 9, monotherapy, oral daily (amantadine 1 mg/kg, 17-EAT 30 mg/kg)

| Compound | Increase in number of surviving TH+ neurons [1] [%] | Mean immobility score [2, 7] | Mean immobility score [2, 8] | Mean immobility score [2, 9] | AIMS [3] | Abnormal involuntary movements scores (AIMS) in combination with levodopa [3] | Mean body weight [4] | Expression of TNF, IL-1b, IL-6, and other inflammatory cytokines [5] | Mean immobility scores in combination with levodopa ([2]; combination with levodopa 5, 7.5, 10, 12.5 or 25 mg/kg, FIG. 1) | Activity in rodent models of neurological disease ([6]; Parkinson's disease, experimental autoimmune encephalomyelitis, optic neuritis, glaucoma) | Activity in rodent models of systemic inflammation ([6]; type 2 diabetes, COPD, rheumatoid arthritis) | LID expression ([3]; levodopa 12.5 mg/kg BID) |
| --- | --- | --- | --- | --- | --- | --- | --- | --- | --- | --- | --- | --- |
| NC12CC3CC(CC(C3)C1)C2 [Amantadine, Amantadine HCl] | 40 | 2.59 | 2.74 | 2.72 | 4.5 | improved compared to monotherapy |  |  |  |  |  |  |
| C#C[C@]1(O)CC[C@H]2[C@@H]3[C@@H](O)C=C4C[C@@H](O)CC[C@]4(C)[C@H]3CC[C@@]21C [Compound 17-EAT, 17-ethynyl-10R, 13S-dimethyl 2,3,4,7, 8R, 9S, 10, 11, 12, 13, 14S, 15, 16, 17-hexadecahydro-1H-cyclopenta[a]phenanthrene-3R, 7R, 17S-triol] | 75 | 2.72 | 2.26 | 2.10 | 2.1 | improved compared to monotherapy | maintained a higher mean body weight compared to either vehicle or amantadine | decreases expression | improved compared to 17-EAT monotherapy | anti-neuroinflammatory or neuroprotective activity | active in rodent models of systemic inflammation |  |
| N[C@@H](Cc1ccc(O)c(O)c1)C(=O)O [Levodopa, L-3,4-dihydroxyphenylalanine] |  |  |  |  |  |  |  |  |  |  |  | induced LID expression in all subjects |
